According to patent publication US6350720B2, “Substituted phenyltriazolin(THI)ones and their use as herbicides” (Bayer Aktiengesellschaft, priority 1997, dated 2002):

## CCS(=O)(=O)N(C(C)=O)c1cc(-n2nc(C(F)(F)F)n(C)c2=O)c(F)cc1C#N
  melting point: 179 °C
